Tests used:
Type in all cases: functional
LOX IMVI = test: Antiproliferative activity against human LOX IMVI cells assessed as cell growth at 10 uM incubated for 48 hrs by sulforhodamine B assay relative to control; details: read-out: Activity
CCRF-CEM = test: Antiproliferative activity against human CCRF-CEM cells assessed as cell growth at 10 uM incubated for 48 hrs by sulforhodamine B assay relative to control; details: read-out: Activity
ACHN = test: Antiproliferative activity against human ACHN cells assessed as cell growth at 10 uM incubated for 48 hrs by sulforhodamine B assay relative to control; details: read-out: Activity
HOP-62 = test: Antiproliferative activity against human HOP-62 cells assessed as cell growth at 10 uM incubated for 48 hrs by sulforhodamine B assay relative to control; details: read-out: Activity
HL-60(TB) = test: Antiproliferative activity against human HL-60 (TB) cells assessed as cell growth at 10 uM incubated for 48 hrs by sulforhodamine B assay relative to control; details: read-out: Activity
MDA-MB-468 = test: Antiproliferative activity against human MDA-MB-468 cells assessed as cell growth at 10 uM incubated for 48 hrs by sulforhodamine B assay relative to control; details: read-out: Activity
UO-31 = test: Antiproliferative activity against human UO-31 cells assessed as cell growth at 10 uM incubated for 48 hrs by sulforhodamine B assay relative to control; details: read-out: Activity
786-0 = test: Antiproliferative activity against human 786-0 cells assessed as cell growth at 10 uM incubated for 48 hrs by sulforhodamine B assay relative to control; details: read-out: Activity
SF-539 = test: Antiproliferative activity against human SF-539 cells assessed as cell growth at 10 uM incubated for 48 hrs by sulforhodamine B assay relative to control; details: read-out: Activity
T47D = test: Antiproliferative activity against human T47D cells assessed as cell growth at 10 uM incubated for 48 hrs by sulforhodamine B assay relative to control; details: read-out: Activity
HCC 2998 = test: Antiproliferative activity against human HCC 2998 cells assessed as cell growth at 10 uM incubated for 48 hrs by sulforhodamine B assay relative to control; details: read-out: Activity
HCT-15 = test: Antiproliferative activity against human HCT-15 cells assessed as cell growth at 10 uM incubated for 48 hrs by sulforhodamine B assay relative to control; details: read-out: Activity
NCI-H522 = test: Antiproliferative activity against human NCI-H522 cells assessed as cell growth at 10 uM incubated for 48 hrs by sulforhodamine B assay relative to control; details: read-out: Activity
SK-MEL-28 = test: Antiproliferative activity against human SK-MEL-28 cells assessed as cell growth at 10 uM incubated for 48 hrs by sulforhodamine B assay relative to control; details: read-out: Activity
SK-MEL-5 = test: Antiproliferative activity against human SK-MEL-5 cells assessed as cell growth at 10 uM incubated for 48 hrs by sulforhodamine B assay relative to control; details: read-out: Activity
OVCAR-3 = test: Antiproliferative activity against human OVCAR-3 cells assessed as cell growth at 10 uM incubated for 48 hrs by sulforhodamine B assay relative to control; details: read-out: Activity
RPMI-8226 = test: Antiproliferative activity against human RPMI-8226 cells assessed as cell growth at 10 uM incubated for 48 hrs by sulforhodamine B assay relative to control; details: read-out: Activity
MDA-MB-231 = test: Antiproliferative activity against human MDA-MB-231/ATCC cells assessed as cell growth at 10 uM incubated for 48 hrs by sulforhodamine B assay relative to control; details: read-out: Activity
SNB-19 = test: Antiproliferative activity against human SNB-19 cells assessed as cell growth at 10 uM incubated for 48 hrs by sulforhodamine B assay relative to control; details: read-out: Activity
UACC-62 = test: Antiproliferative activity against human UACC-62 cells assessed as cell growth at 10 uM incubated for 48 hrs by sulforhodamine B assay relative to control; details: read-out: Activity
SF-295 = test: Antiproliferative activity against human SF-295 cells assessed as cell growth at 10 uM incubated for 48 hrs by sulforhodamine B assay relative to control; details: read-out: Activity
OVCAR-5 = test: Antiproliferative activity against human OVCAR-5 cells assessed as cell growth at 10 uM incubated for 48 hrs by sulforhodamine B assay relative to control; details: read-out: Activity
NCI/ADR-RES = test: Antiproliferative activity against human NCI/ADR-RES cells assessed as cell growth at 10 uM incubated for 48 hrs by sulforhodamine B assay relative to control; details: read-out: Activity
SK-OV-3 [1] = test: Antiproliferative activity against human SK-OV-3 cells assessed as cell growth inhibition measured after 72 hrs by crystal violet staining based assay; details: SK-OV-3, 72 h
EKVX = test: Antiproliferative activity against human EKVX cells assessed as cell growth at 10 uM incubated for 48 hrs by sulforhodamine B assay relative to control; details: read-out: Activity
SK-OV-3 [2] = test: Antiproliferative activity against human SK-OV-3 cells assessed as cell growth at 10 uM incubated for 48 hrs by sulforhodamine B assay relative to control; details: read-out: Activity
HCT-116 [3] = test: Antiproliferative activity against human HCT-116 cells assessed as cell growth inhibition measured after 72 hrs by crystal violet staining based assay; details: HCT-116, 72 h
IGROV-1 = test: Antiproliferative activity against human IGROV-1 cells assessed as cell growth at 10 uM incubated for 48 hrs by sulforhodamine B assay relative to control; details: read-out: Activity
A498 = test: Antiproliferative activity against human A498 cells assessed as cell growth at 10 uM incubated for 48 hrs by sulforhodamine B assay relative to control; details: read-out: Activity
KM12 = test: Antiproliferative activity against human KM12 cells assessed as cell growth at 10 uM incubated for 48 hrs by sulforhodamine B assay relative to control; details: read-out: Activity
BT-549 = test: Antiproliferative activity against human BT-549 cells assessed as cell growth at 10 uM incubated for 48 hrs by sulforhodamine B assay relative to control; details: read-out: Activity
TK-10 = test: Antiproliferative activity against human TK-10 cells assessed as cell growth at 10 uM incubated for 48 hrs by sulforhodamine B assay relative to control; details: read-out: Activity
HCT-116 [4] = test: Antiproliferative activity against human HCT-116 cells assessed as cell growth at 10 uM incubated for 48 hrs by sulforhodamine B assay relative to control; details: read-out: Activity
NCI-H460 = test: Antiproliferative activity against human NCI-H460 cells assessed as cell growth inhibition measured after 72 hrs by crystal violet staining based assay; details: NCI-H460, 72 h
SR = test: Antiproliferative activity against human SR cells assessed as cell growth at 10 uM incubated for 48 hrs by sulforhodamine B assay relative to control; details: read-out: Activity
NCI-H23 = test: Antiproliferative activity against human NCI-H23 cells assessed as cell growth at 10 uM incubated for 48 hrs by sulforhodamine B assay relative to control; details: read-out: Activity
NCI-H226 = test: Antiproliferative activity against human NCI-H226 cells assessed as cell growth at 10 uM incubated for 48 hrs by sulforhodamine B assay relative to control; details: read-out: Activity
NCI-H322M = test: Antiproliferative activity against human NCI-H322M cells assessed as cell growth at 10 uM incubated for 48 hrs by sulforhodamine B assay relative to control; details: read-out: Activity
COLO 205 = test: Antiproliferative activity against human COLO 205 cells assessed as cell growth at 10 uM incubated for 48 hrs by sulforhodamine B assay relative to control; details: read-out: Activity

COc1cc(CNC(=O)CCCC/C=C/C(C)C)ccc1OCc1nnc(Nc2ccc([N+](=O)[O-])cc2)o1
growth at 10 µM (LOX IMVI): 55.2%
growth at 10 µM (CCRF-CEM): 78.8%
growth at 10 µM (ACHN): 41.2%
growth at 10 µM (HOP-62): 0%
growth at 10 µM (HL-60(TB)): 101%
growth at 10 µM (MDA-MB-468): 53.8%
growth at 10 µM (UO-31): 58.7%
growth at 10 µM (786-0): 22.2%
growth at 10 µM (SF-539): 70.2%
growth at 10 µM (T47D): 48.6%
growth at 10 µM (HCC 2998): 83.6%
growth at 10 µM (HCT-15): 81.2%
growth at 10 µM (NCI-H522): 73%
growth at 10 µM (SK-MEL-28): 78.9%
growth at 10 µM (SK-MEL-5): 46.3%
growth at 10 µM (OVCAR-3): 77.3%
growth at 10 µM (RPMI-8226): 52.3%
growth at 10 µM (MDA-MB-231): 67.1%
growth at 10 µM (SNB-19): 54%
growth at 10 µM (UACC-62): 39.6%
growth at 10 µM (SF-295): 64.9%
growth at 10 µM (OVCAR-5): 101%
growth at 10 µM (NCI/ADR-RES): 79.6%
IC50 (SK-OV-3 [1]): 6.4 µM
growth at 10 µM (EKVX): 74.7%
growth at 10 µM (SK-OV-3 [2]): 11.8%
IC50 (HCT-116 [3]): 8.55 µM
growth at 10 µM (IGROV-1): 53.5%
growth at 10 µM (A498): 56.8%
growth at 10 µM (KM12): 71.7%
growth at 10 µM (BT-549): 108%
growth at 10 µM (TK-10): 84.1%
growth at 10 µM (HCT-116 [4]): 24.6%
IC50 (NCI-H460): 5.41 µM
growth at 10 µM (SR): 64.2%
growth at 10 µM (NCI-H23): 62.1%
growth at 10 µM (NCI-H226): 62.1%
growth at 10 µM (NCI-H322M): 54.9%
growth at 10 µM (COLO 205): 70.9%
